{"source": "patent US4377687A", "about": "“Analogs of 1-(2-chloroethyl)-1-nitroso-3-(cycloheyl)-urea substituted by heterocyclic rings or alkyl radicals” (Stiftung Deutsches Krebsforschungszentrum, priority 1978, dated 1983)", "system": "rat leukemia L 5222", "test": "Chemotherapeutic activity against rat Leukemia L5222", "format": "in vivo, rat (BD IX rats)", "protocol": "Chemotherapeutic activity of methylformylamino-CNU against rat Leukemia L5222 (CNU=chloroethyl-nitroso-urea)\nThe compound to be tested was solved in Chremophor EL/ethanol/physiological saline and a single dose was administered intraperitoneally into tumor inoculated BD IX rats. The experiment involved an untreated control group and a number of treated groups. The doses used and the effects of the praeterminal treatment are summarized in the following Table from which the cures (animals free of tumor after 120 days) and the increase in life span (ILS, expressed as percentage of survival of the treated test group to the untreated control group) are evident.\nConsidering the fact that the true measure of the effectiveness of a drug against a neoplastic desease is the ability of the drug to kill the neoplastic cells at dosages that are not toxic to the host animal and that a quantitative evaluation of drug action is usually obtained by using the L1210 leucemia system in mice, it will be realized that in this test the tumor cells are injected into the peritoneal cavity of a mouse which thereafter is treated with the drug to be tested at a very early time after the inoculation of the tumor, i.e. at the first or second day after tumor inoculation. Thus such screening is done under very favourable test conditions for the drug. Contrary thereto the administration of the drug to be tested is performed relatively late in the case of the rat leucemia L5222, i.e. at the 8th day after tumor inoculation. It must, therefore, be taken that at that time tumor cells have colonized the cerebral region, i.e. the meninges, so that cures can only be obtained if the drug has an activity high enough to kill the leucemia cells in the cerebral region in a praeterminal state. Thus by far more severe test conditions are involved when treating rat leucemia L5222 or type Yoshida sarcoma which is a tumor model and which are hard to influence by known drugs.", "key": {"[1]": {"details": "single i.p. dose printed 279 mg/kg"}}, "data": [{"compound": "CN(C=O)NC(=O)N(CCCl)N=O", "note": "[methylformylamino-CNU, 1-(2-chloroethyl)-1-nitroso-3-(methyl-formyl-amino)urea]", "values": [{"measurement": "effectiveness in rat leukemia L 5222 (in words)", "setting": "rat, in vivo", "result": "active"}, {"measurement": "ILS (increase in life span)", "setting": "single i.p. dose 7 mg/kg", "result": 70, "unit": "%"}, {"measurement": "cures (animals free of tumor after 120 days)", "setting": "single i.p. dose 7 mg/kg, 7 mg/kg", "result": "3/8 and three cured animals out of eight"}, {"measurement": "ILS (increase in life span)", "setting": "single i.p. dose 70 mg/kg", "result": 610, "unit": "%"}, {"measurement": "cures (animals free of tumor after 120 days)", "setting": "single i.p. dose 70 mg/kg", "result": "3/9"}, {"measurement": "ILS (increase in life span)", "setting": "single i.p. dose 88 mg/kg", "result": 230, "unit": "%"}, {"measurement": "cures (animals free of tumor after 120 days)", "setting": "single i.p. dose 88 mg/kg", "result": "2/6"}, {"measurement": "ILS (increase in life span)", "setting": "single i.p. dose 111 mg/kg", "result": 250, "unit": "%"}, {"measurement": "ILS (increase in life span)", "setting": "single i.p. dose 176 mg/kg", "result": 40, "unit": "%"}, {"measurement": "ILS (increase in life span)", "setting": "single i.p. dose 11,1 mg/kg", "result": 100, "unit": "%"}, {"measurement": "cures (animals free of tumor after 120 days)", "setting": "single i.p. dose 11,1 mg/kg", "result": "2/8"}, {"measurement": "ILS (increase in life span)", "setting": "single i.p. dose 17,6 mg/kg", "result": 150, "unit": "%"}, {"measurement": "cures (animals free of tumor after 120 days)", "setting": "single i.p. dose 17,6 mg/kg", "result": "2/8"}, {"measurement": "ILS (increase in life span)", "setting": "single i.p. dose 44,2 mg/kg", "result": 150, "unit": "%"}, {"measurement": "cures (animals free of tumor after 120 days)", "setting": "single i.p. dose 44,2 mg/kg", "result": "2/8"}, {"measurement": "ILS (increase in life span)", "setting": "[1]", "result": 175, "unit": "%"}, {"measurement": "cures (animals free of tumor after 120 days)", "setting": "[1]", "result": "3/8"}]}]}
